“And” between values parts separate entries of the source, which are not always exact repeats. Equal values may be shown once.
Tests used:
[1] = parameters: method as in PMID 29630818; settings: cited from earlier work
cytochrome P450 (CYP450) = tested on: cytochrome P450 (CYP450); parameters: method as in PMID 28736501, PMID 29717476; settings: cited from earlier work
[2] = parameters: method as in PMID 27169564; settings: cited from earlier work
[3] = parameters: method as in PMID 34318678; settings: intracellular distribution not considered; cited from earlier work
[4] = tested on: subcutaneous MDA-MB-231 xenografts; experiment: Ex vivo biodistribution by gamma counter; assay type: in vivo, NOD/SCID mice
Protocol: Female NOD/SCID mice at 5–6 weeks of age (Janvier, France) was used for developing subcutaneous TNBC tumour. Animals were housed in 20–24 °C in a 12 h day light cycle. For each mouse, 3 × 10^6 MDA-MB-231 cells were suspended in a 1:1 (volume) mixture of Culture media: Matrigel® matrix (Corning®, Product No: 356237). Mice were inoculated with this cell suspension (max 200 µl) subcutaneously in the right flank. Tumour growth was monitored daily using calliper measurements. Tumour volume was calculated daily according to the formula Tumourvolume=TumourLength×Tumourbreadth^2×0.52
Upon reaching of a tumour volume of 500 mm^3, animals were proceeded for experiments. For biodistribution study animals were administered with [^123I]PARPi-01 (n = 3). For therapy studies animals were randomized for control (n = 10) or [^125I]PARPi-01 administration (n = 10). Randomisation was done based on equivalent distribution of tumour volumes. In addition to the daily calliper measurements image analysis of CT based tumour volumes was blinded to avoid bias. Animals were sacrificed upon completion of biodistribution study or upon reaching a humane end point for the therapy study. Humane end point is determined as reaching of either of the following conditions: 15 mm tumour diameter, 1500 mm^3 tumour volume, or development of ulcers/ascites.
For biodistribution, animals imaged at 4 h p.i. were killed 24 h p.i., while the ones scanned 24 h p.i. were killed 5 days p.i.. Subsequently, organs were excised, weighed, and assayed for radioactivity in a gamma counter. Mean tumour and organ uptake was determined from decay-corrected tissue radioactivity normalized to injected dose and tissue sample weight (%ID/g tissue wet weight).

[5] = tested on: subcutaneous MDA-MB-231 tumours; experiment: Small animal SPECT/CT imaging; assay type: in vivo, NOD/SCID mice
Protocol: Imaging was performed with a small animal SPECT/CT system (X-Cube and γ-Cube, Molecubes, Gent, Belgium). Mice bearing subcutaneous MDA-MB-231 tumours upon reaching tumour volume of 500 mm^3 were intravenously administered with [^123I]PARPi-01 (9.3 ± 2.7 MBq) via lateral tail-vein using a catheter under 1.5 to 2.5% isoflurane anaesthesia in oxygen at 0.8 L/min. [^123I]PARPi-01 was prepared by diluting the tracer in 0.9% NaCl to a total volume of 100 μL. Administered dose was calculated by subtraction of decay-corrected syringe activity post-injection from pre-injection activity. The mice were scanned either at 4 h or at 24 h post injection (p.i.). The CT acquisition settings were as follows: default high resolution protocol, 440 uA, 50 kVp, 32 ms exposure time, and 1080° rotation in a spiral mode with 960 exposures/360°; the duration of each CT scan was 5 min. A SPECT scan was initiated at the end of each CT scan. The SPECT acquisition settings were as follows: 7-headed camera equipped with a general-purpose collimator with 28 pinholes (i.e., 0.75 mm apertures and a radius of rotation of 20 mm), helical scan with 82 bed positions; the total duration of each SPECT scan was 30 min. Both CT and SPECT axial fields of view were selected at 105 mm. During the scans, the isoflurane concentration was adapted to achieve a respiratory rate between 75 and 50 breaths per minute. […]

[6] = 24 h p.i., i.v., decay-corrected, n = 3

## O=C(c1cc(Cc2n[nH]c(=O)c3ccccc23)ccc1F)N1CCN(C(=O)C2CC2)CC1 [Olaparib]
[1]
  Log Poct: 1.95
Cytochrome P450 (CYP450)
  fraction metabolised in liver by CYP450: 84%
[2]
  dose limiting toxicities: anaemia, thrombocytopenia, and neutropenia

## O=C(c1cccc([123I])c1)N1CCN(C(=O)c2cc(Cc3n[nH]c(=O)c4ccccc34)ccc2F)CC1 [[^123I]MAPi]
[3]
  estimated absorbed dose in liver: 0.0044 Gy/MBq
  estimated absorbed dose in thyroid: 0.0041 Gy/MBq

## O=C(c1ccc([123I])cc1)N1CCN(C(=O)c2cc(Cc3n[nH]c(=O)c4ccccc34)ccc2F)CC1 [[^123I]PARPi-01]
[4]; 24 h p.i.
  Tumour: Blood Ratio: 1.3
[4]; [6]
  liver uptake: 2.5 %ID/g and 2.49 ± 0.6 %ID/g
  tumour uptake: 0.2 %ID/g
[4]; 5 d p.i.
  activity in organs of animals sacrificed at 5 d p.i.: no quantifiable activity
[5]; 4 h and 24 h p.i.
  clearance pathway: hepatobiliary clearance
[5]; 24 h p.i.
  deiodination in vivo (thyroid uptake): strong deiodination
